28 compounds from patent US9790221B2, “Heteroaryl compounds as IRAK inhibitors and uses thereof” (Merck Patent GmbH, priority 2014, dated 2017) can be followed below.

The target of experiment [1] is IRAK1 (His-TEV-IRAK1 (194-712)) (Homo sapiens (Human), UniProt P51617). Description: IRAK1 enzymatic assay. Format: biochemical. The procedure, abridged:
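Recombinant His-TEV-IRAK1 (194-712), 15 ng/well, autophosphorylation with 1 μM ATP plus [33P]ATP, 3 h at 30° C in Hepes pH 7.0 buffer with MgCl2, DTT, EGTA, BSA and Triton; compounds from 20 µM to 1 nM. The reaction was stopped with EDTA, and radioactivity was counted in streptavidin FlashPlates.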

For a further experiment, the target named is IRAK4 (Homo sapiens (Human), UniProt Q9NWZ3). In words: IRAK4 enzymatic assay. Format: biochemical. The method in brief: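 Recombinant His-TEV-IRAK4 (20 ng/well) phosphorylating biotinylated STK1 peptide (300 nM) with 2 μM ATP plus [^33P]ATP, 3 h at 30° C in pH 7.0 Hepes buffer with Mg2+ and Mn2+. Compounds 20 µM to 1 nM; EDTA stop, radioactivity captured on streptavidin FlashPlates.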

The subject of experiment [2] is TLR7 induced IL-6 secretion in human mononuclear cells (PBMC's). In words: TLR7 induced IL-6 in human PBMC's. Format: cell-based. To be noted: Homo sapiens, PBMC, read-out: TLR7 induced IL-6 secretion in hPBMC's (IC50). The procedure, abridged: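 Fresh or frozen healthy-donor PBMCs preincubated 30 min at 37° C. with compound (25 uM to 0.4 nM; vehicle 0.25% DMSO) in RPMI/10% HI-FBS. Stimulated with TLR7 ligand (2 uM) for 16-18 h at 37° C.; supernatant IL-6 measured by AlphaLISA.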

As a reminder, the pIC50 is the IC50 on a negative log10 scale, so that one unit is a factor of ten.

pIC50: −log10 of the molar value.

IRAK4, sequence (Q9NWZ3 whole entry): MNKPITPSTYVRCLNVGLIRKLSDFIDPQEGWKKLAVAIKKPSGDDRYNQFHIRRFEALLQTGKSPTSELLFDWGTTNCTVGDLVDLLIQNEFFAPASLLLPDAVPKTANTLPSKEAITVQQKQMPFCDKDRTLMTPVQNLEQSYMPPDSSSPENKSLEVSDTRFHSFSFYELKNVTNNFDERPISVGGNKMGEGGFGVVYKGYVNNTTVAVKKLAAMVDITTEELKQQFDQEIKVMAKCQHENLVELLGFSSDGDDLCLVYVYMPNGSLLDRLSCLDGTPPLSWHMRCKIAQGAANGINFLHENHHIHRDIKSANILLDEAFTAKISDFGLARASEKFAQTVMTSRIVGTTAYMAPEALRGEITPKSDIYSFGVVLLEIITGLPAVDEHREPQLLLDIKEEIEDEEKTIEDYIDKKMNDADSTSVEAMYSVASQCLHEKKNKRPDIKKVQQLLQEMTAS
IRAK1 (His-TEV-IRAK1 (194-712)), sequence (P51617 194-712): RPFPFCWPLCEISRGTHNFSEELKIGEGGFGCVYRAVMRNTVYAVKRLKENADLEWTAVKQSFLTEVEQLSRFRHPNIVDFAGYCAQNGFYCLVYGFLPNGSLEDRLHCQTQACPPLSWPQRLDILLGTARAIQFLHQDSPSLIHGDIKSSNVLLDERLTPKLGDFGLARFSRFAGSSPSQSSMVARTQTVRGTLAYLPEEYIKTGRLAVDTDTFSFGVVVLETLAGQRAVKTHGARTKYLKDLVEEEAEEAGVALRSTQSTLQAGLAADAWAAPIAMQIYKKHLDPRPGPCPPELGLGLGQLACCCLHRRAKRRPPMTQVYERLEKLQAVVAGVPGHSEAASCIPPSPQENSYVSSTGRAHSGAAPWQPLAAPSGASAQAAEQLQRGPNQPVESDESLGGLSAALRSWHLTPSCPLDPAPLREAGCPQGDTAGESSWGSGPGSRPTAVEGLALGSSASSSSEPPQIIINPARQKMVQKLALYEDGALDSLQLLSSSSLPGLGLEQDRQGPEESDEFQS

Regarding `Cn1cc(-c2cccc(-c3ncc(-c4cnn(C)c4)c(NC4C5CCCC4CC(N)C5)n3)c2)cn1` (stereo not drawn) [Example 153], the pIC50 in experiment [1] was 6.00 to 7.00; at IRAK4, more than 7.00; in experiment [2] it was 6.00 to 7.00.
`Cn1cc(-c2cccc(-c3ncc(-c4cnn(C)c4)c(NC[C@H]4CC[C@H](O)CC4)n3)c2)cn1` [Example 156]: the figures for the pIC50 (in experiment [1]; on IRAK4; in experiment [2]) were 6.00 to 7.00, more than 7.00 and 6.00 to 7.00, respectively.
As to `Cn1cc(-c2cccc(-c3ncc(-c4cnn(C)c4)c(NC4CC5(CCN(S(C)(=O)=O)C5)C4)n3)c2)cn1` (stereo not drawn) [Example 169], the pIC50 in experiment [1] is 6.00 to 7.00; on IRAK4, more than 7.00; in experiment [2] it was less than 5.30.
Regarding `Cn1cc(-c2cccc(-c3ncc(-c4cnn(C)c4)c(N[C@@H]4CCN(S(C)(=O)=O)C4)n3)c2)cn1` [Example 171], the values for the pIC50 (in experiment [1]; against IRAK4; in experiment [2]) were more than 7.00, more than 7.00 and 5.30 to 6.00, respectively.
Regarding `Cn1cc(-c2cccc(-c3ncc(-c4cnn(C)c4)c(NCCCNS(C)(=O)=O)n3)c2)cn1` [Example 179], the figures for the negative-log IC50 (pIC50) (in experiment [1]; against IRAK4; in experiment [2]) were 6.00 to 7.00, more than 7.00 and 5.30 to 6.00, respectively.
For `Cn1cc(-c2cccc(-c3ncc(-c4cnn(C)c4)c(NCC4CC(O)C4)n3)c2)cn1` (stereo not drawn) [Example 181], the results for the pIC50 (in experiment [1]; at IRAK4; in experiment [2]) were 6.00 to 7.00, more than 7.00 and 5.30 to 6.00, respectively.
On the same counts, the results for `Cn1cc(-c2cccc(-c3ncc(-c4cnn(C)c4)c(N[C@H]4CC[C@H](NS(C)(=O)=O)CC4)n3)c2)cn1` [Example 182] are more than 7.00, more than 7.00 and 6.00 to 7.00.
On the same counts, the results for `Cn1cc(-c2cccc(-c3ncc(-c4cnn(C)c4)c(N[C@H]4C[C@@H](NS(C)(=O)=O)C4)n3)c2)cn1` [Example 183] are 6.00 to 7.00, more than 7.00 and 5.30 to 6.00.
On to `Cc1nnc(-c2cnc(-c3cccc(-c4cnn(C)c4)c3)nc2NCCNS(C)(=O)=O)s1` [Example 184], for which the pIC50 is 6.00 to 7.00 in experiment [1], more than 7.00 against IRAK4 and 6.00 to 7.00 in experiment [2].
For the compound `Cn1cc(-c2cccc(-c3ncc(-c4cnn(C)c4)c(N[C@H]4CC[C@H](N)C4)n3)c2)cn1` [Example 185], the pIC50 in experiment [1] was 5.30 to 6.00; at IRAK4, more than 7.00; in experiment [2], 5.30 to 6.00.
With `Cn1cc(-c2cccc(-c3ncc(-c4cnn(C)c4)c(NC45CCC(N)(CC4)CC5)n3)c2)cn1` [Example 186], the pIC50 in experiment [1] was more than 7.00; on IRAK4, more than 7.00; in experiment [2], 6.00 to 7.00.
For the compound `Cn1cc(-c2cccc(-c3ncc(-c4cnn(C)c4)c(NC45CCC(NS(C)(=O)=O)(CC4)CC5)n3)c2)cn1` [Example 187], the pIC50 in experiment [1] is more than 7.00; at IRAK4, more than 7.00; in experiment [2], 6.00 to 7.00.
On to `Cn1cc(-c2cccc(-c3ncc(-c4cnn(C)c4)c(NC4CC(CN)C4)n3)c2)cn1` (stereo not drawn) [Example 188], for which the pIC50 is more than 7.00 in experiment [1], more than 7.00 on IRAK4 and 5.30 to 6.00 in experiment [2].
As for `Cn1cc(-c2cccc(-c3ncc(-c4cnn(C)c4)c(N[C@H]4CC[C@H](NS(C)(=O)=O)C4)n3)c2)cn1` [Example 190], the pIC50 in experiment [1] was more than 7.00; at IRAK4, more than 7.00; in experiment [2], 5.30 to 6.00.
For the compound `Cn1cc(-c2cccc(-c3ncc(-c4cnn(C)c4)c(NC4CCC(CN)CC4)n3)c2)cn1` (stereo not drawn) [Example 194], the results for the pIC50 (in experiment [1]; on IRAK4; in experiment [2]) were 6.00 to 7.00, more than 7.00 and 6.00 to 7.00, respectively.
Regarding `Cn1cc(-c2cccc(-c3ncc(-c4cnn(C)c4)c(N[C@H]4C[C@@H](CNS(C)(=O)=O)C4)n3)c2)cn1` [Example 195, N-(3-{5-(1-Methyl-1H-pyrazol-4-yl)-2-[3-(1-methyl-1H-pyrazol-4-yl)-phenyl]-pyrimidin-4-ylamino}-cyclobutylmethyl)-methanesulfonamide], the pIC50 in experiment [1] was more than 7.00; on IRAK4, more than 7.00; in experiment [2] it was 5.30 to 6.00.
As to `Cn1cc(-c2cccc(-c3ncc(-c4cnn(C)c4)c(N[C@H]4C[C@H](CNS(C)(=O)=O)C4)n3)c2)cn1` [Example 196, N-(3-{5-(1-Methyl-1H-pyrazol-4-yl)-2-[3-(1-methyl-1H-pyrazol-4-yl)-phenyl]-pyrimidin-4-ylamino}-cyclobutylmethyl)-methanesulfonamide], the pIC50 in experiment [1] was 6.00 to 7.00; on IRAK4, 6.00 to 7.00; in experiment [2] it was 5.30 to 6.00.
Consider `Cn1cc(-c2cccc(-c3ncc(-c4cnn(C)c4)c(NC4CC5CCC4N5S(C)(=O)=O)n3)c2)cn1` (stereo not drawn) [Example 199], for which the pIC50 is 6.00 to 7.00 in experiment [1], more than 7.00 at IRAK4 and 6.00 to 7.00 in experiment [2].
With `Cn1cc(-c2cccc(-c3ncc(-c4cnn(C)c4)c(N[C@H]4CCC[C@H](O)[C@@H]4O)n3)c2)cn1` [Example 208, (1S,2R,3S)-3-{5-(1-Methyl-1H-pyrazol-4-yl)-2-[3-(1-methyl-1H-pyrazol-4-yl)-phenyl]-pyrimidin-4-ylamino}-cyclohexane-1,2-diol], the pIC50 in experiment [1] is 6.00 to 7.00; against IRAK4, more than 7.00; in experiment [2] it was 6.00 to 7.00.
In the case of `Cc1nnc(-c2cnc(-c3cccc(-c4cnn(C)c4)c3)nc2NC2CCC(NS(=O)(=O)C3CC3)CC2)s1` (stereo not drawn) [Example 209], the pIC50 in experiment [1] is more than 7.00; against IRAK4, more than 7.00; in experiment [2], 6.00 to 7.00.
As to `CC(C)Nc1nc(-c2cccc(-c3cnn(C)c3)c2)ncc1-c1nnc(C2CCNCC2)s1` [Example 210], the pIC50 was 6.00 to 7.00 in experiment [1], more than 7.00 at IRAK4 and 6.00 to 7.00 in experiment [2].
Turning to `CC(=O)NC[C@H]1C[C@@H](Nc2nc(-c3cccc(-c4cnn(C)c4)c3)ncc2-c2cnn(C)c2)C1` [Example 211, N-(3-{5-(1-Methyl-1H-pyrazol-4-yl)-2-[3-(1-methyl-1H-pyrazol-4-yl)-phenyl]-pyrimidin-4-ylamino}-cyclobutylmethyl)-acetamide], the pIC50 in experiment [1] is 6.00 to 7.00; against IRAK4, 6.00 to 7.00; in experiment [2] it was 5.30 to 6.00.
As to `Cn1cc(-c2cccc(-c3ncc(-c4cnn(C)c4)c(NCCCS(C)(=O)=O)n3)c2)cn1` [Example 213], the pIC50 in experiment [1] was more than 7.00; on IRAK4, more than 7.00; in experiment [2] it was 6.00 to 7.00.
Consider `Cc1nnc(-c2cnc(-c3cccc(-c4cnn(C)c4)c3)nc2NC2CCC(F)(F)CC2)s1` [Example 214], for which the negative-log IC50 (pIC50) in experiment [1] was less than 5.30; at IRAK4 it was more than 7.00; in experiment [2], 5.30 to 6.00.
On to `Cc1ccc(-c2cnc(-c3cccc(-c4cnn(C)c4)c3)nc2NC2CCN(S(C)(=O)=O)CC2)cn1` [Example 215], for which the pIC50 in experiment [1] was 6.00 to 7.00; on IRAK4, more than 7.00; in experiment [2], 6.00 to 7.00.
For the compound `Cc1nnc(-c2cnc(-c3cccc(-c4cnn(C)c4)c3)nc2NCC(O)C(F)(F)F)s1` (stereo not drawn) [Example 216], the values for the pIC50 (in experiment [1]; against IRAK4; in experiment [2]) were 6.00 to 7.00, more than 7.00 and 6.00 to 7.00, respectively.
Turning to `Cn1cc(-c2cccc(-c3ncc(-c4cnn(C)c4)c(NCC4CCCOC4)n3)c2)cn1` (stereo not drawn) [Example 217], the pIC50 is 6.00 to 7.00 in experiment [1], more than 7.00 at IRAK4 and 5.30 to 6.00 in experiment [2].
For `Cn1cc(-c2cccc(-c3ncc(-c4cnn(C)c4)c(N4CCC(O)CC4)n3)c2)cn1` [Example 219], in that order: 6.00 to 7.00, more than 7.00 and 5.30 to 6.00.
